Measured values from PubChem BioAssay (NCI).
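Grown in 96-well plates, cells were treated for 48 hours with each compound at five concentrations. Insufficient inhibition: endpoint recorded as highest concentration tested. TGI: concentration producing complete growth inhibition.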

Legend:
Test in all cases: NCI-60 cell line screen, 48 h
MOLT-4 leukemia = test system: MOLT-4 leukemia
IGROV1 ovarian = test system: IGROV1 ovarian
LOX IMVI melanoma = test system: LOX IMVI melanoma
U251 CNS = test system: U251 CNS
SK-MEL-28 melanoma = test system: SK-MEL-28 melanoma
HOP-92 NSCLC = test system: HOP-92 NSCLC
HL-60(TB) leukemia = test system: HL-60(TB) leukemia
UACC-62 melanoma = test system: UACC-62 melanoma
RPMI-8226 leukemia = test system: RPMI-8226 leukemia
CAKI-1 renal = test system: CAKI-1 renal
HOP-62 NSCLC = test system: HOP-62 NSCLC
SK-OV-3 ovarian = test system: SK-OV-3 ovarian
786-0 renal = test system: 786-0 renal
SW-620 colon = test system: SW-620 colon
SNB-19 CNS = test system: SNB-19 CNS
HCT-15 colon = test system: HCT-15 colon
EKVX NSCLC = test system: EKVX NSCLC
HS 578T breast = test system: HS 578T breast
MDA-MB-435 = test system: MDA-MB-435
BT-549 breast = test system: BT-549 breast

SMILES | TGI (MOLT-4 leukemia) | TGI (IGROV1 ovarian) | TGI (LOX IMVI melanoma) | TGI (U251 CNS) | TGI (SK-MEL-28 melanoma) | TGI (HOP-92 NSCLC) | TGI (HL-60(TB) leukemia) | TGI (UACC-62 melanoma) | TGI (RPMI-8226 leukemia) | TGI (CAKI-1 renal) | TGI (HOP-62 NSCLC) | TGI (SK-OV-3 ovarian) | TGI (786-0 renal) | TGI (SW-620 colon) | TGI (SNB-19 CNS) | TGI (HCT-15 colon) | TGI (EKVX NSCLC) | TGI (HS 578T breast) | TGI (MDA-MB-435) | TGI (BT-549 breast)
CC(=O)OC1CC2C(C)(C)C(=O)C=C[C@]2(C)C2CCC3(C)C(c4ccoc4)[C@@H](O)[C@H]4O[C@]43[C@]12C (some centres undefined) | 88.8 µM | 46.2 µM | 31.3 µM | 27.8 µM | 40.5 µM | 39.9 µM | 46.7 µM | 32.5 µM | 67.1 µM | 45.6 µM | 42.6 µM | 42.5 µM | 31.4 µM | 35.4 µM | 59.6 µM | 31.2 µM | > 100 µM | – | – | –
CC1=NN(c2cccc(Cl)c2)C(=N/c2nc3ccccc3s2)/C1=C\c1cccs1 | 95.2 µM | > 100 µM | > 100 µM | 60.2 µM | > 100 µM | > 100 µM | 30.6 µM | – | 32.5 µM | > 100 µM | > 100 µM | > 100 µM | > 100 µM | > 100 µM | – | > 100 µM | > 100 µM | 73 µM | > 100 µM | –
O=c1c2cc(-c3ccccc3)cnc2sn1-c1ccc(Oc2ccccc2)cc1 | > 100 µM | > 100 µM | – | 78.1 µM | > 100 µM | > 100 µM | > 100 µM | > 100 µM | > 100 µM | > 100 µM | 56.8 µM | > 100 µM | 36.4 µM | > 100 µM | 54.7 µM | > 100 µM | > 100 µM | – | > 100 µM | 62.4 µM
Cn1c(=O)n2c(-c3ccccc3)c(-c3ccccc3)n2c1=O | > 100 µM | > 100 µM | > 100 µM | > 100 µM | > 100 µM | > 100 µM | > 100 µM | > 100 µM | – | > 100 µM | > 100 µM | > 100 µM | > 100 µM | > 100 µM | > 100 µM | > 100 µM | > 100 µM | > 100 µM | – | > 100 µM
N#C/C(C(=S)Nc1ccccc1)=C(/N)N1CCCC1 | > 100 µM | > 100 µM | > 100 µM | > 100 µM | > 100 µM | > 100 µM | > 100 µM | > 100 µM | > 100 µM | 92.5 µM | > 100 µM | – | > 100 µM | > 100 µM | > 100 µM | > 100 µM | > 100 µM | > 100 µM | > 100 µM | –
COC(=O)c1ccc(COC(=O)N2C=CCC2C(=O)O)cc1 (centres undefined) | > 100 µM | > 100 µM | – | > 100 µM | > 100 µM | > 100 µM | – | > 100 µM | > 100 µM | > 100 µM | > 100 µM | > 100 µM | > 100 µM | > 100 µM | > 100 µM | > 100 µM | – | > 100 µM | > 100 µM | > 100 µM
CC1C2(C)OC(=N)C(C#N)(C(C)O2)C1(C#N)C#N (centres undefined) | > 100 µM | > 100 µM | 41.4 µM | 50 µM | 88.6 µM | 37.6 µM | 41.1 µM | 43.8 µM | – | 26.4 µM | – | > 100 µM | 62 µM | 43 µM | – | 28.8 µM | > 100 µM | > 100 µM | – | 92.5 µM
O=Nc1sc(=N\O)/c(=N/O)sc1NO | > 100 µM | > 100 µM | > 100 µM | > 100 µM | > 100 µM | > 100 µM | > 100 µM | > 100 µM | > 100 µM | > 100 µM | > 100 µM | > 100 µM | > 100 µM | > 100 µM | > 100 µM | > 100 µM | > 100 µM | – | > 100 µM | > 100 µM
C=C1CC2CC(=O)C(O)C(C1)C2 (centres undefined) | > 100 µM | – | > 100 µM | – | – | > 100 µM | > 100 µM | > 100 µM | > 100 µM | > 100 µM | > 100 µM | > 100 µM | > 100 µM | > 100 µM | – | > 100 µM | > 100 µM | > 100 µM | > 100 µM | –
CC1=CC(=O)c2c(C=O)c(O)c(O)c(C(C)C)c2C1=O | 66.3 µM | 63.9 µM | 27.6 µM | 47.4 µM | > 100 µM | 45.5 µM | > 79.5 µM | 56.4 µM | > 62.8 µM | 52.9 µM | > 100 µM | > 100 µM | 45.5 µM | – | > 100 µM | > 100 µM | – | – | – | –
Nc1ncnc2c1ncn2C1C=CC(COS(N)(=O)=O)C1 (centres undefined) | > 100 µM | > 100 µM | 37.6 µM | > 100 µM | > 100 µM | 87.3 µM | 30.1 µM | > 100 µM | > 100 µM | 57.6 µM | > 100 µM | > 100 µM | > 100 µM | > 100 µM | > 100 µM | > 100 µM | > 100 µM | > 100 µM | > 100 µM | –
CC(C)n1c(=O)[nH]n(-c2ccccc2)c1=O | > 100 µM | > 100 µM | > 100 µM | > 100 µM | > 100 µM | > 100 µM | > 100 µM | > 100 µM | > 100 µM | > 100 µM | > 100 µM | > 100 µM | > 100 µM | > 100 µM | > 100 µM | > 100 µM | > 100 µM | > 100 µM | > 100 µM | –
CCCCCNC(=O)c1c(O)[nH]c(=S)[nH]c1=O | > 100 µM | > 100 µM | > 100 µM | > 100 µM | > 100 µM | > 100 µM | > 100 µM | > 100 µM | > 100 µM | > 100 µM | > 100 µM | > 100 µM | > 100 µM | > 100 µM | > 100 µM | > 100 µM | – | – | – | –
